For this assay, the system named is Brattleboro rats. Briefly: In vivo testing of liposomes: urine excretion after oral DDAVP. To be noted: oral by gavage, DDAVP 10 µg/kg body weight. As for the experimental part:
Liposomes composed of STEL-PC and cholesterol in a ratio of 1 : 2.5 with DDVAP encapsulated as active agent were studied in the Brattleboro model.
Treatment with exogenous vasopression restores normal urinary function and exerts a temporal antidiuretic effect.
Brattleboro rats were hold singly in metabolic cages with free access to tap water. DDAVP was administered orally by gavage at a dose of 10 µg/kg body weight either as free compound or in various formulations. Urine excretion was measured over 24 h in 1 h intervals using a fraction collector.

For “1-desamino-8-D-arginine vasopressin [free DDAVP]”, the “inhibition of urine excretion (duration)” value is on record as “approximately 2 hours”.
